Assays:
Format in all cases: cell-based, Helicobacter pylori
[1] = tested on: H. pylori; experiment: Anti H. pylori screening by disc diffusion susceptibility assay; conditions: 100 and 200 mg/disc (so in the source), 72 h
Outline: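 Clinical strains HP001, HP002 and ATCC 700392, 43504, 49503 (10^8 CFU/mL) spread on supplemented BHI agar; 5 mm discs loaded with 100 and 200 […] compound in ethanol or DMSO. Zones read after 72 h microaerophilic growth at 37 °C; scored + (10-20 mm), ++ (20-30 mm), +++ (>30 mm), Nil <10 mm.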

[2] = tested on: H. pylori; experiment: as above; parameters: key: strongly active (diameter>30 mm) and were given a score of 3^+; intermediate active (^˜20-30 mm diameter) and were given a score of 2^+; moderately active (^˜10-20 min diameter) and were given a score of 1^+; not active (>10 mm diameter); conditions: 100 and 200 μg/disc, majority of the strains
Protocol: (§1) The discs were impregnated with […] of each of the compounds, dissolved either in ethanol or DMSO, and the zone of inhibition was measured after 72 h of growth under microaerophilic conditions at 37° C. Inhibition zone diameter ranging 10-20 mm was given a score of ^+, 20-30 mm as ^++ and that of >30 mm as ^+++, as obtained employing dose range of […]/disc. The detailed structural information of the molecules is provided under ‘Description of the Compounds’.
(§2) Methods and protocols for the determination of inhibition zone diameter are as stated under Experiment 1, and that of MIC values by microbroth dilution assay as in Experiment 3. ‘Nil’ means zone of inhibition below 10 mm.
(§3) The anti H. pylori activity of all 16 flavonoid molecules, 2 naturally isolated and 14 synthetic derivatives, was screened by disc diffusion sensitivity assay employing 2 clinical strains HP001 and HP002, and three standard strains ATCC® 700392, 43504 and 49503. A 0.5 mL inoculum (10^8 CFU/mL) for each bacterial strain tested was flooded on freshly prepared Brain Heart Infusion (BHI) agar plates supplemented with 7% FCS, 0.5% IsoVitalex and 0.0025% DENT® and the discs (5 mm diameter) containing different compounds or antibiotics (dissolved either in ethanol or DMSO) were placed on the agar surface. After incubation for 3 days in a microaerophilic atmosphere at 37° C., the diameter of the zone of inhibition was measured (Glupczynsky, 1996; McNulty et al., 2002).

[3] = tested on: H. pylori; experiment: as above; parameters: key: strongly active (3^+, diameter>30 mm); intermediate active (2^+, ˜20-30 mm diameter); moderately active (1^+, ˜10-20 mm diameter); not active (<10 mm diameter); conditions: two doses, majority of the strains
Protocol: as §1, §2, §3

[4] = tested on: H. pylori; experiment: Anti H. pylori spectrum (MIC) by agar dilution method; conditions: for MIC50: MIC against 50% of the strains of the panel; for MIC Range: panel of 6 clinical isolates and 4 standard strains
Outline: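 Agar dilution per CLSI against six clinical isolates and four standard strains on BHI agar with 7% FCS, 0.5% IsoVitalex and DENT. Inoculum ~10^8 CFU/mL; 2-fold compound dilutions from 1.56-100; 72 h microaerophilic at 37 °C. MIC read visually as no growth, in duplicate; MIC50 covers 50% of strains.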

Row | MIC50 [4] | MIC Range [4] | Compound | Inhibition zone diameter (score) ([1]; ATCC standard strain 43504) | Inhibition zone diameter (score) ([1]; ATCC standard strain 49503) | Inhibition zone diameter (score) ([1]; ATCC standard strain 700392) | Inhibition zone diameter (score) ([1]; clinical strain HP001) | Inhibition zone diameter (score) ([1]; clinical strain HP002) | Activity class by inhibition zone diameter [2] | Activity class by inhibition zone diameter [3]
1 |  |  | O=c1cc(-c2ccccc2)oc2cc(OCCCN3CCOCC3)cc(O)c12 [CHM-2, 5-Hydroxy-7-(3-morpholin-4-yl-propoxy)-2-phenyl-chromen-4-one] | Nil (‘Nil’ means zone of inhibition below 10 mm) | Nil (‘Nil’ means zone of inhibition below 10 mm) | Nil (‘Nil’ means zone of inhibition below 10 mm) | Nil (‘Nil’ means zone of inhibition below 10 mm) | Nil (‘Nil’ means zone of inhibition below 10 mm) | not active | not active
2 |  |  | CN(C)CCCCCCOc1cc(O)c2c(=O)cc(-c3ccccc3)oc2c1 [CHN-1, 7-(6-Dimethylamino-hexyloxy)-5-hydroxy-2-phenyl-chromen-4-one] | Nil (‘Nil’ means zone of inhibition below 10 mm) | Nil (‘Nil’ means zone of inhibition below 10 mm) | Nil (‘Nil’ means zone of inhibition below 10 mm) | Nil (‘Nil’ means zone of inhibition below 10 mm) | Nil (‘Nil’ means zone of inhibition below 10 mm) | not active | not active
3 | much higher | much higher | O=c1cc(-c2ccccc2)oc2cc(O)cc(O)c12 [Chrysin, 5,7-Dihydroxy-2-phenyl-chromen-4-one, reference compound] | Nil (‘Nil’ means zone of inhibition below 10 mm) | Nil (‘Nil’ means zone of inhibition below 10 mm) | Nil (‘Nil’ means zone of inhibition below 10 mm) | Nil (‘Nil’ means zone of inhibition below 10 mm) | Nil (‘Nil’ means zone of inhibition below 10 mm) | not active | not active
4 |  |  | CCCCCCCCCCCCCCCCC(=O)Oc1cc2oc(-c3ccccc3)cc(=O)c2c(O)c1OC [ORC-16, Heptadecanoic acid 5-hydroxy-6-methoxy-4-oxo-2-phenyl-4H-chromen-7-yl ester] | Nil (‘Nil’ means zone of inhibition below 10 mm) | Nil (‘Nil’ means zone of inhibition below 10 mm) | Nil (‘Nil’ means zone of inhibition below 10 mm) | Nil (‘Nil’ means zone of inhibition below 10 mm) | Nil (‘Nil’ means zone of inhibition below 10 mm) | not active | not active
5 | much higher | much higher | COc1c(O)cc2oc(-c3ccccc3)cc(=O)c2c1O [Oroxylin A, reference compound] | Nil (‘Nil’ means zone of inhibition below 10 mm) | Nil (‘Nil’ means zone of inhibition below 10 mm) | Nil (‘Nil’ means zone of inhibition below 10 mm) | Nil (‘Nil’ means zone of inhibition below 10 mm) | Nil (‘Nil’ means zone of inhibition below 10 mm) | not active | not active
